How the values were obtained:
[1] = tested on: Colon-26 cells; test: In vitro photosensitizing efficacy (MTT assay); assay type: cell-based; details: for in vitro photosensitizing efficacy among all the compounds tested (fraction survival vs. light dose): 24 h incubation, light 0-2 J/cm^2, MTT; for PDT efficacy compared to the free base analogs: In(III) complex vs. free base
Protocol: In graphs A-E, Y=fraction surviving and X=Light dose in J/cm^2. The numbers in the legends refer to compound number in FIGS. 7-12.
In vitro Photosensitizing Efficacy (MTT Assay]: Colon-26 cells were grown in α-DMEM with 10% fetal calf serum, and penicillin and streptomycin. Cells were maintained in 5% CO2 and 95% air at 100% humidity. For phototoxicity studies, cells were placed in 96-well plates at a density of 5×10^4 cells/well, in complete medium. 24 h later, compounds were added at variable concentration. After 24 incubation in the dark at 37° C., the cells were irradiated with a laser light from an argon pumped dye laser using flunces of 0-2 J/cm^2 at a dose of 5.6 mW/cm^2. After PDT, the cells were washed once, placed in complete medium, and incubated for 48 h. Cells were incubated with 10 μL/well of 4 mg/mL MTT for the final 4 h. The MTT-containing medium was removed, and 100 μL DMSO was added to solubilize the formazan crystals. The absorbance of the wells was read on a microtiter plate reader at a wavelength of 560 nm.^10 The results were plotted as fraction survival vs. the light dose used at the same concentrations. […] These compounds are currently being evaluated for in vivo efficacy, where the pharmacokinetic and the pharmacodynamic properties of the molecules will have a significant impact in efficacy.

[2] = earlier work; cited from earlier work

Molecule | in vitro photosensitizing efficacy among all the compounds tested (fraction survival vs. light dose) [1] | PDT efficacy compared to the free base analogs [1] | PDT activity among alkyl ether analogs of pyropheophorbide-a [2]
CC[C@H]1/C2=C/c3c(C)c4c5[n]3[In]([Cl])[n]3/c(c(C)c(C(C)=O)/c3=C/C(=N2)[C@@H]1C)=C\C1=NC(=C\5CC4=O)/[C@@H](CCC(=O)OC)[C@@H]1C [compound 23] | most effective |  | 
CC[C@H]1/C2=C/c3c(C)c4c5[n]3[In]([Cl])[n]3/c(c(C)c(C(C)=O)/c3=C/C(=N2)[C@@H]1C)=C\C1=NC(=C\5CC4=O)/C(CCC(=O)OC)=C1C [compound 22] | most effective | enhanced PDT efficacy | 
CCCCCCOC(C)c1c(C)/c2[n]3/c1=C\C1=NC(=C\c4c(C)c5c([n]4[In]3[Cl])/C(=C3N=C(\C=2)C(C)=C\3CCC(=O)OC)CC5=O)/[C@H](CC)[C@H]1C (some centres unmarked) [compound 24] |  | enhanced PDT efficacy | 
3-(1-hexyloxyethyl)-3-devinyl-pyropheophorbide-a [compound 3a] |  |  | most effective

Reference: US8679459B2, “B ring reduced-D ring oxidized tetrapyrrolic photosensitizers for photodynamic therapy and tumor imaging” (Health Research, Inc., priority 2008, dated 2014)
